Experimental findings from patent US20230406860A1, “HETEROCYCLIC SPIRO COMPOUNDS AND METHODS OF USE” (AMGEN INC., priority 2020, published 2023) are described below.

Where two headings read alike, the source gives them in different places.

Test [1] addresses GDP-bound KRAS protein (aa 1-169), containing both G12C and C118A amino acid substitutions (Homo sapiens, UniProt P01116, C118A/G12C). Nature of the test: Coupled nucleotide exchange assay (SOS-mediated, AlphaScreen). The format is biochemical. As to the method: Coupled Nucleotide Exchange Assay:
For all subsequent steps, DTT was added to the reaction buffer at a final concentration of 1 mM. […] The assay plates were then read on a plate reader measuring luminescence signal. Signal intensity of compound-containing wells were normalized to DMSO control, and data were analyzed using a 4-parameter logistic model to calculate IC50 values.

Test [2] has as its system MIA PaCa-2 (human pancreatic carcinoma) cells. Description: Cell viability assay (CellTiter-Glo), MIA PaCa-2. The format is cell-based. Conditions: 72 h. As to the method:
(§1) MIA PaCa-2 (human pancreatic carcinoma; ATCC CRL-1420) or A549 (human lung carcinoma; ATCC CCL-185) cells were cultured in RPMI 1640 medium containing 10% fetal bovine serum and 1× penicillin/streptomycin/L-glutamine. Cells were seeded in 384-well plates at a density of 1.67E+04 cells/mL and incubated at 37° C., 5% CO2, overnight. Serially-diluted compound or DMSO was added to the cells, and plates were incubated at 37° C., 5% CO2 for 72 h. Cell viability was measured using a CellTiter-Glo® Luminescent Cell Viability Assay kit (Promega) according to the manufacturer's protocol. The luminescence signal of treated samples was normalized to DMSO control, and data were analyzed using a 4-parameter logistic model to calculate IC50 values.

For test [3], the system named is A549 (human lung carcinoma) cells. Nature of the test: Cell viability assay (CellTiter-Glo), A549. Conditions: 72 h. The format is cell-based. As for the experimental part: as §1
The mark [4] stands for this setting: 20 h compound pre-incubation (values marked * in Table 6), read-out: Avg 20 h Coupled exchange IC50.
[5] abbreviates: 2 h compound pre-incubation, read-out: Avg 2 h Coupled exchange IC50.

Chain of GDP-bound KRAS protein (aa 1-169), containing both G12C and C118A amino acid substitutions (P01116 1-169 isoform P01116-2 G12C/C118A): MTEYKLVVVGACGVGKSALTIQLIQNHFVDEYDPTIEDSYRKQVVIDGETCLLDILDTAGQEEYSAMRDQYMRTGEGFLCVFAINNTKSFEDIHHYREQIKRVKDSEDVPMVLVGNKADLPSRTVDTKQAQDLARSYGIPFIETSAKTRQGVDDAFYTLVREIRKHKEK

As to `C=CC(=O)N1CC2(CCN(c3nc4c(c(N[C@H](CC(=O)NC)CC(C)C)n3)COC4)C2)C1` [Example 1-13, (3S)-N,5-dimethyl-3-((2-(2-(2-propenoyl)-2,6-diazaspiro[3.4]octan-6-yl)-5,7-dihydrofuro[3,4-d]pyrimidin-4-yl)amino)hexanamide], the IC50 is 5850 nM in test [1] (setting [4]), over 5000 nM in test [2] and over 5000 nM in test [3].

On to `C=CC(=O)N1CC2(CCN(c3nc(N[C@H](CC(=O)NC)CC(C)C)c4c(ncn4C)n3)C2)C1` [Example 1-14, (3S)-N,5-dimethyl-3-((7-methyl-2-(2-(2-propenoyl)-2,6-diazaspiro[3.4]octan-6-yl)-7H-purin-6-yl)amino)hexanamide], for which the IC50 in test [1] (setting [5]) is 196000 nM; in test [2], over 25000 nM; in test [3], over 25000 nM.

For `C=CC(=O)N1CC2(CCN(c3nc(N[C@H](CC(=O)NC)CC(C)C)c4c(n3)[C@@H](C)CCC4)C2)C1` [Example 1-15, (3S)-N,5-dimethyl-3-(((8S)-8-methyl-2-(2-(2-propenoyl)-2,6-diazaspiro[3.4]octan-6-yl)-5,6,7,8-tetrahydro-4-quinazolinyl)amino)hexanamide], the IC50 in test [1] (setting [5]) is 4420 nM; in test [2] it was 2260 nM; in test [3] it was over 5000 nM.

Take `C=CC(=O)N1CC2(CCN(c3nc(N[C@H](CC(=O)NC)CC(C)C)c4ccn(C)c4n3)C2)C1` [Example 1-16, (3S)-N,5-dimethyl-3-((7-methyl-2-(2-(2-propenoyl)-2,6-diazaspiro[3.4]octan-6-yl)-7H-pyrrolo[2,3-d]pyrimidin-4-yl)amino)hexanamide]: the IC50 in test [1] (setting [4]) is 918 nM; in test [2], 4600 nM; in test [3], over 25000 nM.

Take `C=CC(=O)N1CC2(CCN(c3nc(N[C@H](CC(=O)NC)CC(C)C)c4ncn(C)c4n3)C2)C1` [Example 1-17, (3S)-N,5-dimethyl-3-((9-methyl-2-(2-(2-propenoyl)-2,6-diazaspiro[3.4]octan-6-yl)-9H-purin-6-yl)amino)hexanamide]: the IC50 was 8790 nM in test [1] (setting [5]), 2460 nM in test [2] and over 25000 nM in test [3].

As to `C=CC(=O)N1CC2(C1)CN(c1nc(N[C@H](CC(=O)NC)CC(C)C)c3ccccc3n1)CC2(F)F` [Example 1-18, (3S)-3-((2-(8,8-difluoro-2-(2-propenoyl)-2,6-diazaspiro[3.4]octan-6-yl)-4-quinazolinyl)amino)-N,5-dimethylhexanamide], the figures for the IC50 in test [1] (setting [5]), in test [2] and in test [3] were 334 nM, 971 nM and 6250 nM, respectively.

On to `C=CC(=O)N1CC2(CCN(c3nc4c(c(N[C@H](Cc5nnc[nH]5)CC(C)C)n3)CCCC4)C2)C1` [Example 1-19, 1-(6-(4-(((2S)-4-methyl-1-(4H-1,2,4-triazol-3-yl)-2-pentanyl)amino)-5,6,7,8-tetrahydro-2-quinazolinyl)-2,6-diazaspiro[3.4]octan-2-yl)-2-propen-1-one], for which the half-maximal inhibitory concentration (IC50) was 4160 nM in test [1] (setting [5]), over 5000 nM in test [2] and over 5000 nM in test [3].

For `C=CC(=O)N1CC2(CCN(c3nc(N[C@H](CC(=O)NC)CC(C)C)c4ccc(C(C)C)cc4n3)C2)C1` [Example 1-20, (3S)-N,5-dimethyl-3-((7-(2-propanyl)-2-(2-(2-propenoyl)-2,6-diazaspiro[3.4]octan-6-yl)-4-quinazolinyl)amino)hexanamide], the IC50 was 84 nM in test [1] (setting [5]), 75 nM in test [2] and 21600 nM in test [3].

Take `C=CC(=O)N1CC2(CCN(c3nc4c(c(N[C@H](Cc5nnc(C)o5)CC(C)C)n3)CCCC4)C2)C1` [Example 1-22, 1-(6-(4-(((2S)-4-methyl-1-(5-methyl-1,3,4-oxadiazol-2-yl)-2-pentanyl)amino)-5,6,7,8-tetrahydro-2-quinazolinyl)-2,6-diazaspiro[3.4]octan-2-yl)-2-propen-1-one]: the IC50 in test [1] (setting [5]) is 830 nM; in test [2], 279 nM; in test [3] it was over 25000 nM.

In the case of `C=CC(=O)N1CC2(CCN(c3nc4c(c(N[C@H](Cc5ncc[nH]5)CC(C)C)n3)CCCC4)C2)C1` [Example 1-23, 1-(6-(4-(((2S)-1-(1H-imidazol-2-yl)-4-methyl-2-pentanyl)amino)-5,6,7,8-tetrahydro-2-quinazolinyl)-2,6-diazaspiro[3.4]octan-2-yl)-2-propen-1-one], the IC50 in test [1] (setting [5]) was 1160 nM; in test [2], 2830 nM; in test [3] it was over 5000 nM.

In the case of `C=CC(=O)N1CC2(CCN(c3nc(N[C@H](CC(=O)NC)CC(C)C)c4ccc(C)cc4n3)C2)C1` [Example 1-25, (3S)-N,5-dimethyl-3-((7-methyl-2-(2-(2-propenoyl)-2,6-diazaspiro[3.4]octan-6-yl)-4-quinazolinyl)amino)hexanamide], the figures for the IC50 in test [1] (setting [5]), in test [2] and in test [3] were 339 nM, 921 nM and over 5000 nM, respectively.

Turning to `C=CC(=O)N1CC2(CCN(c3nc(N[C@H](CC(=O)NC)CC(C)C)c4ccc(C#N)cc4n3)C2)C1` [Example 1-26, (3S)-3-((7-cyano-2-(2-(2-propenoyl)-2,6-diazaspiro[3.4]octan-6-yl)-4-quinazolinyl)amino)-N,5-dimethylhexanamide], the IC50 in test [1] (setting [5]) is 180 nM; in test [2], 185 nM; in test [3] it was over 25000 nM.

With `C=CC(=O)N1CC2(C1)CN(c1nc(N[C@H](CC(=O)NC)CC(C)C)c3ccccc3n1)CC2F` (stereo partly drawn) [Example 1-27, (3S)-3-((2-(8-fluoro-2-(2-propenoyl)-2,6-diazaspiro[3.4]octan-6-yl)-4-quinazolinyl)amino)-N,5-dimethylhexanamide], the IC50 is 3490 nM in test [1] (setting [5]), over 5000 nM in test [2] and over 5000 nM in test [3].

Regarding `C=CC(=O)N1CC2(C1)CN(c1nc3c(c(N[C@H](CC(=O)NC)CC(C)C)n1)CCC(C)C3)CC2F` (stereo partly drawn) [Example 1-28, (3S)-3-((2-(8-fluoro-2-(2-propenoyl)-2,6-diazaspiro[3.4]octan-6-yl)-7-methyl-5,6,7,8-tetrahydro-4-quinazolinyl)amino)-N,5-dimethylhexanamide], the IC50 in test [1] (setting [5]) was 196 nM; in test [2] it was 189 nM; in test [3], over 5000 nM.

For `C=CC(=O)N1CC2(CCN(c3nc(N[C@H](CC(=O)NC)CC(C)C)c4ccc(Cl)cc4n3)C2)C1` [Example 1-30, (3S)-3-((7-chloro-2-(2-(2-propenoyl)-2,6-diazaspiro[3.4]octan-6-yl)-4-quinazolinyl)amino)-N,5-dimethylhexanamide], the IC50 in test [1] (setting [5]) was determined as 265 nM; in test [2] it was 112 nM; in test [3], 14600 nM.

For `C=CC(=O)N1CC2(CCN(c3nc4c(c(N[C@H](CC(=O)NC)CC(C)C)n3)OCCC4)C2)C1` [Example 1-31, (3S)-N,5-dimethyl-3-((2-(2-(2-propenoyl)-2,6-diazaspiro[3.4]octan-6-yl)-7,8-dihydro-6H-pyrano[3,2-d]pyrimidin-4-yl)amino)hexanamide], the IC50 in test [1] (setting [5]) was 428 nM; in test [2], 261 nM; in test [3], over 25000 nM.

On to `C=CC(=O)N1CC2(CCN(c3nc4c(c(N[C@H](CC(=O)NC)CC(C)C)n3)CCC(C(F)(F)F)C4)C2)C1` (stereo partly drawn) [Example 1-32, (3S)-N,5-dimethyl-3-((2-(2-(2-propenoyl)-2,6-diazaspiro[3.4]octan-6-yl)-7-(trifluoromethyl)-5,6,7,8-tetrahydro-4-quinazolinyl)amino)hexanamide], for which the IC50 in test [1] (setting [5]) was 57 nM; in test [2], 24 nM; in test [3], over 25000 nM.
